Patent publication US10821115B2, “Compounds that inhibit Mcl-1 protein” (priority 2017, dated 2020)
Where two headings read alike, the source gives them in different places.

Tests used:
[1] = target: recombinant human Mcl-1 (residues 171-327) / Bim interaction (Homo sapiens (Human), UniProt Q07820); assay: biochemical; type: binding; details: read-out: Mcl-1 HTRF IC50
[2] = system: human multiple myeloma cell line, OPM-2; assay: Cell viability assay (OPM-2 10 FBS), CellTiter-Glo; type: cell-based
Summary of the method: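 Steps: plate cells at 3000/well in 10% FBS growth medium, add serially diluted compound, incubate 16 h at 37 °C with 5% CO2, add detection reagent and read luminescence after 25 min. A 4-parameter logistic model gives IC50.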

[3] = TR-FRET, Mcl-1(171-327) / biotin-Bim (51-76)
[4] = Homo sapiens, OPM-2, 16 h, read-out: OPM-2 10% FBS IC50 IP, OPM-2 cells, 10% FBS, 16 h, CellTiter-Glo
[5] = 0.1 nM Mcl-1(171-327), 0.05 nM biotin-Bim (51-76)
[6] = Homo sapiens, OPM-2, 16 h, read-out: OPM-2 10% FBS IC50 IP, OPM-2 cells, 10% FBS, 16 h incubation
[7] = read-out: OPM-2 10% FBS IC50 IP, OPM-2 cells, 10% FBS, 16 h, CellTiter-Glo
[8] = read-out: OPM-2 10% FBS IC50 IP, OPM-2 cells, 10% FBS, 16 h incubation

recombinant human Mcl-1 (residues 171-327) / Bim interaction, sequence (Q07820 171-327): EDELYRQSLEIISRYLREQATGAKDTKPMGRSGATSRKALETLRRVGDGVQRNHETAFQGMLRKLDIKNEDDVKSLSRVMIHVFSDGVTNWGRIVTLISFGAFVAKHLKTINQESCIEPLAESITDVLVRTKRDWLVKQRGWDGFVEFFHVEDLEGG

| SMILES | IC50 [1, 3] | IC50 [2, 4] | IC50 [1, 5] | other results |
| --- | --- | --- | --- | --- |
| CO[C@]1(CCN2CCN(C)C(=O)C2)/C=C/C[C@H](C)[C@@H](C)S(=O)(=O)NC(=O)c2ccc3c(c2)N(C[C@@H]2CC[C@H]21)C[C@@]1(CCCc2cc(Cl)ccc21)CO3 [Example 100415, (1S,3′R,6′R,7′R,8′E,11′S,12′R)-6-chloro-7′-methoxy-11′,12′-dimethyl-7′-(2-(4-methyl-3-oxo-1-piperazinyl)ethyl)-3,4-dihydro-2H,15′H-spiro[naphthalene-1,22′-[20]oxa[13]thia[1,14]diazatetracyclo [14.7.2.0~3,6~.0~19,24~]pentacosa[8,16,18,24]tetraen]-15′-one 13′,13′-dioxide] | 1.95 nM | 2280 nM | – | – |
| C[C@@H]1[C@@H](C)CCC[C@]2(CO2)[C@@H]2CC[C@H]2CN2C[C@@]3(CCCc4cc(Cl)ccc43)COc3ccc(cc32)C(=O)NS1(=O)=O (stereo in doubt) [Example 100164] | 0.917 nM | 967 nM | – | – |
| CCO[C@@]1(CN2CCN(C(COC)COC)CC2)/C=C/C[C@H](C)[C@@H](C)S(=O)(=O)NC(=O)c2ccc3c(c2)N(C[C@@H]2CC[C@H]21)C[C@@]1(CCCc2cc(Cl)ccc21)CO3 [Example 111, (1S,3′R,6′R,7′S,8′E,11′S,12′R)-6-chloro-7′-ethoxy-7′-((4-(2-methoxy-1-(methoxymethyl)ethyl)-1-piperazinyl)methyl)-11′,12′-dimethyl-3,4-dihydro-2H,15′H-spiro[naphthalene-1,22′-[20]oxa[13]thia[1,14]diazatetracyclo [14.7.2.0~3,6~.0~19,24~]pentacosa[8,16,18,24]tetraen]-15′-one 13′,13′-dioxide] | – | – | 0.362 nM | IC50 [2, 6]: 301 nM |
| CO[C@@]1(CO)CCC[C@H](C)[C@@H](C)S(=O)(=O)NC(=O)c2ccc3c(c2)N(C[C@@H]2CC[C@H]21)C[C@@]1(CCCc2cc(Cl)ccc21)CO3 (stereo in doubt) [Example 100184, (1S,3′R,6′R,7′S,11′S,12′R)-6-chloro-7′-(hydroxymethyl)-7′-methoxy-11′,12′-dimethyl-3,4-dihydro-2H,15′H-spiro[naphthalene-1,22′-[20]oxa[13]thia[1,14]diazatetracyclo [14.7.2.0~3,6~.0~19,24~]pentacosa[16,18,24]rien]-15′-one 13′,13′-dioxide] | 0.717 nM | – | – | IC50 [2, 7]: 179 nM |
| C[C@@H]1[C@@H](C)C/C=C/[C@@](O)(C(F)F)[C@@H]2CC[C@H]2CN2C[C@@]3(CCCc4cc(Cl)ccc43)COc3ccc(cc32)C(=O)NS1(=O)=O [Example 100069, (1S,3′R,6′R,7′S,8′E,11′S,12′R)-6-chloro-7′-(difluoromethyl)-7′-hydroxy-11′,12′-dimethyl-3,4-dihydro-2H,15′H-spiro[naphthalene-1,22′-[20]oxa[13]thia[1,14]diazatetracyclo [14.7.2.0~3,6~.0~19,24~]pentacosa[8,16,18,24]tetraen]-15′-one 13′,13′-dioxide] | 0.457 nM | – | – | IC50 [2, 7]: 250 nM |
| CC[C@]1(OC)/C=C/C[C@H](C)[C@@H](C)S(=O)(=O)NC(=O)c2ccc3c(c2)N(C[C@@H]2CC[C@H]21)C[C@@]1(CCCc2cc(Cl)ccc21)CO3 [Example 100234, (1S,3′R,6′R,7′S,8′E,11′S,12′R)-6-chloro-7′-ethyl-7′-methoxy-11′,12′-dimethyl-3,4-dihydro-2H,15′H-spiro[naphthalene-1,22′-[20]oxa[13]thia[1,14]diazatetracyclo [14.7.2.0~3,6~.0~19,24~]pentacosa[8,16,18,24]tetraen]-15′-one 13′,13′-dioxide] | 0.237 nM | 449 nM | – | – |
| COCCN1CCN(C[C@@]2(OC)/C=C/C[C@H](C)[C@@H](C)S(=O)(=O)NC(=O)c3ccc4c(c3)N(C[C@@H]3CC[C@H]32)C[C@@]2(CCCc3cc(Cl)ccc32)CO4)CC1 [Example 61, (1S,3′R,6′R,7′R,8′E,11′S,12′R)-6-chloro-7′-methoxy-7′-((4-(2-methoxyethyl)-1-piperazinyl)methyl)-11′,12′-dimethyl-3,4-dihydro-2H,15′H-spiro[naphthalene-1,22′-[20]oxa[13]thia[1,14]diazatetracyclo [14.7.2.0~3,6~.0~19,24~]pentacosa[8,16,18,24]tetraen]-15′-one 13′,13′-dioxide] | – | – | 0.075 nM | IC50 [2, 6]: 124 nM |
| C[C@@H]1[C@@H](C)CCC[C@@](O)(CC(=O)N2CCC2)[C@@H]2CC[C@H]2CN2C[C@@]3(CCCc4cc(Cl)ccc43)COc3ccc(cc32)C(=O)NS1(=O)=O [Example 100145, (1S,3′R,6′R,7′R,11′S,12′R)-7′-(2-(1-azetidinyl)-2-oxoethyl)-6-chloro-7′-hydroxy-11′,12′-dimethyl-3,4-dihydro-2H,15′H-spiro[naphthalene-1,22′-[20]oxa[13]thia[1,14]diazatetracyclo [14.7.2.0~3,6~.0~19,24~]pentacosa[16,18,24]trien]-15′-one 13′,13′-dioxide] | 0.357 nM | – | – | IC50 [2, 7]: 945 nM |
| CO[C@]1(CN2CC[C@H]3CCCC[C@@H]3C2)/C=C/C[C@H](C)[C@@H](C)S(=O)(=O)NC(=O)c2ccc3c(c2)N(C[C@@H]2CC[C@H]21)C[C@@]1(CCCc2cc(Cl)ccc21)CO3 [Example 86] | – | – | 3.9 nM | IC50 [2, 8]: 7950 nM |
| C[C@@H]1[C@@H](C)C/C=C/[C@](O)(c2cccnc2F)[C@@H]2CC[C@H]2CN2C[C@@]3(CCCc4cc(Cl)ccc43)COc3ccc(cc32)C(=O)NS1(=O)=O (single isomer, unassigned) [Example 100314] | 2.93 nM | – | – | IC50 [2, 7]: 2290 nM |
| CO[C@@]1(CN2CCN3CC[C@H](F)C[C@@H]3C2)/C=C/C[C@H](C)[C@@H](C)S(=O)(=O)NC(=O)c2ccc3c(c2)N(C[C@@H]2CC[C@H]21)C[C@@]1(CCCc2cc(Cl)ccc21)CO3 [Example 274] | – | – | 0.285 nM | IC50 [2, 8]: 232 nM |
| CO[C@@]1(CN2CCN3CCCC[C@@H]3C2)/C=C/C[C@H](C)[C@@H](C)S(=O)(=O)NC(=O)c2ccc3c(n2)N(C[C@@H]2CC[C@H]21)C[C@@]1(CCCc2cc(Cl)ccc21)CO3 [Example 372, (1S,3′R,6′R,7′S,8′E,11′S,12′R)-6-chloro-7′-methoxy-11′,12′-dimethyl-7′-((9aR)-octahydro-2H-pyrido[1,2-a]pyrazin-2-ylmethyl)-3,4-dihydro-2H,15′H-spiro[naphthalene-1,22′-[20]oxa[13]thia[1,14,25]triazatetracyclo [14.7.2.0~3,6~.0~19,24~]pentacosa[8,16,18,24]tetraen]-15′-one 13′,13′-dioxide] | – | – | 0.175 nM | IC50 [2, 6]: 85 nM |
| CC[C@@H]1CCCC[C@](CO)(OC)[C@@H]2CC[C@H]2CN2C[C@@]3(CCCc4cc(Cl)ccc43)COc3ccc(cc32)C(=O)NS1(=O)=O [Example 100041, (1S,3′R,6′R,7′S,12′R)-6-chloro-12′-ethyl-7′-(hydroxymethyl)-7′-methoxy-3,4-dihydro-2H,15′H-spiro[naphthalene-1,22′-[20]oxa[13]thia[1,14]diazatetracyclo [14.7.2.0~3,6~.0~19,24~]pentacosa[16,18,24]trien]-15′-one 13′,13′-dioxide] | 3.36 nM | 4990 nM | – | – |
| CC[C@]1(O)/C=C/C[C@H](C)[C@@H](C)S(=O)(=O)NC(=O)c2ccc3c(c2)N(C[C@@H]2CC[C@H]21)C[C@@]1(CCCc2cc(Cl)ccc21)CO3 [Example 100207, (1S,3′R,6′R,7′S,8′E,11′S,12′R)-6-chloro-7′-ethyl-7′-hydroxy-11′,12′-dimethyl-3,4-dihydro-2H,15′H-spiro[naphthalene-1,22′-[20]oxa[13]thia[1,14]diazatetracyclo [14.7.2.0~3,6~.0~19,24~]pentacosa[8,16,18,24]tetraen]-15′-one 13′,13′-dioxide] | 0.141 nM | 215 nM | – | – |
